Test results from patent EP4721737A1, “USE OF PHARMACEUTICAL COMPOSITION COMPRISING COMPOUND HAVING BIS(AZANYLYLIDENE) SULFONYL STRUCTURE FOR TREATING ANEMIA-RELATED DISEASES” (Scinnohub Pharmaceutical Co., Ltd., priority 2023, dated 2024).
Where two headings read alike, the source gives them in different places.

Assays:
[1] = pharmacokinetic properties test in rats; assay type: in vivo; settings: SD rat, single, plasma; for MRT last: read-out: MRT0-t; for Vd: read-out: Vss
Experimental: (§1) The pharmacokinetic properties of the compounds of the present disclosure in different animal species were investigated by measuring plasma drug concentrations following intravenous and oral gavage in mouse, rat, and dog.
(§2) i. The compounds were weighed, then the solvent (5% DMSO + 10% Solutol + 85% saline) was added to prepare the administration solution. ii. On the day before the experiment, animals in the oral administration group were fasted overnight (10-14 hours) and fed 4 hours after administration. iii. At each time point after administration, approximately 30 µL of venous blood was collected from an appropriate location in each group of animals and placed in a sodium heparin tube. Blood samples were placed on ice and centrifuged within 1 hour to separate plasma (centrifugation conditions: 6800 g, 6 min, 2-8°C). Plasma samples were stored at -80°C until analysis.
(§3) b) An LC-MS/MS analytical method was developed for measuring compound concentrations in mouse, rat, and dog plasma. This method was used to determine compound concentrations in biological samples obtained in this assay.
(§4) Pharmacokinetic parameters were calculated using Phoenix WinNonlin 7.0 using plasma drug concentration data at different time points.

[2] = target: T1, PKR in ex vivo red blood cells of patients with thalassemia (Homo sapiens, UniProt P30613); experiment: ex vivo pyruvate kinase (PKR) activity experiment, red blood cells of patients with thalassemia; assay type: cell-based
T1 construct: endogenous in cells; host or cells: human red blood cells of thalassemia patients (Patients A-D)
T1 sequence (P30613 whole entry): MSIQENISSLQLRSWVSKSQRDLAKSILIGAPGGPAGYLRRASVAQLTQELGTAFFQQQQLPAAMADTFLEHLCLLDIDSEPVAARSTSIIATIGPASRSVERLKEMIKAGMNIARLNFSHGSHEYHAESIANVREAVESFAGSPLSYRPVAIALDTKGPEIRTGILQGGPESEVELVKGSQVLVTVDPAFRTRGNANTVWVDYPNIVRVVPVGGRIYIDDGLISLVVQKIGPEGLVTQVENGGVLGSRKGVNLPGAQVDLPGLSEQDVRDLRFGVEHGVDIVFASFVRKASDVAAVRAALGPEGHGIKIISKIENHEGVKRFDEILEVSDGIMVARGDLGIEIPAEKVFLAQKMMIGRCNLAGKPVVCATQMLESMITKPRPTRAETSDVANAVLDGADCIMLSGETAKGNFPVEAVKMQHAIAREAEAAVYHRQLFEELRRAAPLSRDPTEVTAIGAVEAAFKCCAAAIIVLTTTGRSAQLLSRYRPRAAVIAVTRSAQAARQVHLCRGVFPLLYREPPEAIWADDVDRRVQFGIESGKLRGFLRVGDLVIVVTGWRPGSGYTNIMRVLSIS
Experimental: To test the effects of the compound of the present disclosure on PKR activation in ex vivo red blood cells from healthy individuals and patients with thalassemia.
• i. 5 g of glucose, 85 mg of adenine, and 2.625 g of mannitol were weighed and added into a 50 mL centrifuge tube. 40 mL of PBS was added to dissolve (sonicate for 30 minutes until completely dissolved). The solution was filtered through a 0.22 µm filter, then added to 460 mL of sterile PBS and mixed thoroughly.
• i. Fresh human peripheral blood was collected. K2EDTA was used as the anticoagulant. 1 part anticoagulant with 9 parts blood was mixed, then centrifuged at 500 g for 10 minutes at room temperature to remove the plasma. • ii. Packed red blood cells: 1.5 volumes of PBS were added, then centrifuged at 2000 ×g for 5 minutes at room temperature. After centrifugation, the supernatant was removed. This step was repeated twice. • iii. Diluted red blood cells: 1.5 volumes of PBS were added, then resuspended and mixed thoroughly. • iv. The diluted red blood cells were slowly added to 0.5 volume of 70% isotonic solution (e.g., 7.5 mL of diluted red blood cells + 3 mL of 70% isotonic solution Percoll) and centrifuged at 4000 ×g for 20 minutes at 4°C. • v. The supernatant was removed. The red blood cells at the bottom were washed once with 4-5 mL of PBS to elute the Percoll gel, and then centrifuged at 2000 ×g for 5 minutes at room temperature. • vi. The supernatant was removed. The red blood cells were counted and then diluted in AGAM medium containing 10% FBS to a density of 2 × 10^8 cells/mL for storage at 4°C.
i. The red blood cells were seeded into a 96-well plate at a uniform density of 1 × 10^7 cells/mL, with 100 µL per well. The test compounds (dissolved in DMSO) were diluted and added to the cell culture medium, resulting in final compound concentrations of 3000, 1000, 300, 100, 10, 3, and 1 nM (with 1% DMSO). The cells and compounds were co-cultivated for 3 hours in a 37°C incubator with 5% CO2. Subsequently, the plate was centrifuged at 2000 g for 20 minutes, and the supernatant was discarded. 100 µL of red blood cell lysis buffer was added to the cell pellet, vortexed for 20 minutes, and centrifuged at 4000 g for 5 minutes. The supernatant was collected for analysis. ii. The reaction system was prepared according to the kit instructions (shown as the table below), 10 µL of the reaction system was added to each well of a 384-well plate, and 10 µL of red blood cell lysis buffer was took and mixed well (20 µL reaction system).
iii. A black, transparent-bottomed 384-well plate was placed in a microplate reader to measure fluorescence at 540/590 nm. The fluorescence was read every 2 minutes for 1 hour.
i. The Slope value was calculated over the assay time. Compound activation percentage was calculated using the 1% DMSO well as the control well. Activation percentage = (Slope of compound well / Slope of control well) × 100% ii. Dose-response curve was fit using the logarithmic compound concentration on the X-axis and the percent activation percentage on the Y-axis, the log(agonist) vs. response - variable slope function in GraphPad Prism 5 was used to determine the AC50 value for each compound on PKR activity. Y = min + (max−min)/(1+10^(∧)((LogAC50−X)×Hillslope)). [formula] The PKR agonist effects of the compound of the present disclosure on ex vivo red blood cells from healthy individuals and thalassemia patients were determined using the above assay. The AC50 values measured on ex vivo red blood cells from healthy individuals are as follows (A represents 0-100 nM, B represents 101-300 nM, and C represents 300-1000 nM): […]

[3] = pharmacokinetic properties test in mice; assay type: in vivo; settings: ICR mouse, single, plasma; for MRT last: read-out: MRT0-t; for Vd: read-out: Vss
Experimental: as §1, §2, §3, §4

[4] = pharmacokinetic properties test in dogs; assay type: in vivo; settings: dog, Beagle, single, plasma; for MRT last: read-out: MRT0-t; for Vd: read-out: Vss
Experimental: as §1, §2, §3, §4

[5] = thalassemia Patient A, read-out: AC50 (nM) Patient A
[6] = thalassemia Patient B, read-out: AC50 (nM) Patient B
[7] = thalassemia Patient C, read-out: AC50 (nM) Patient C
[8] = thalassemia Patient D, read-out: AC50 (nM) Patient D

| Structure (SMILES) | AUC(0-t) ([1]; 1 mg/kg intravenous injection) [ng·h/mL] | Cmax ([1]; 1 mg/kg intravenous injection) [ng/mL] | Tmax ([1]; 1 mg/kg intravenous injection) [h] | clearance ([1]; 1 mg/kg intravenous injection) [mL/min/kg] | half-life ([1]; 1 mg/kg intravenous injection) [h] | MRT last ([1]; 1 mg/kg intravenous injection) [h] | Vd ([1]; 1 mg/kg intravenous injection) [L/kg] | AUC(0-t) ([1]; 10 mg/kg oral gavage, fasted) [ng·h/mL] | Cmax ([1]; 10 mg/kg oral gavage, fasted) [ng/mL] | Tmax ([1]; 10 mg/kg oral gavage, fasted) [h] | half-life ([1]; 10 mg/kg oral gavage, fasted) [h] | MRT last ([1]; 10 mg/kg oral gavage, fasted) [h] | AC50 [2, 5] [nM] | AC50 [2, 6] [nM] | AC50 [2, 7] [nM] | AC50 [2, 8] [nM] | AUC(0-t) ([3]; 1 mg/kg intravenous injection) [ng·h/mL] | Cmax ([3]; 1 mg/kg intravenous injection) [ng/mL] | Tmax ([3]; 1 mg/kg intravenous injection) [h] | clearance ([3]; 1 mg/kg intravenous injection) [mL/min/kg] | also measured |
| --- | --- | --- | --- | --- | --- | --- | --- | --- | --- | --- | --- | --- | --- | --- | --- | --- | --- | --- | --- | --- | --- |
| N#Cc1ccc(S(=O)(=O)N2CC(=C3CN(C(=O)[C@H](CO)c4ccccc4)C3)C2)cc1 [Compound 65, (S)-4-(1'-(3-hydroxy-2-phenylpropionyl)-1',4'-dihydro-2H,2'H-[3,3'-diazetidinylidene]-1(4H)-ylsulfonyl)benzonitrile] | 394 | 689 | 0.08 | 42.2 | 0.64 | 0.58 | 1.56 | 1730 | 993 | 0.25 | 1.53 | 2.24 | 251 | 84.4 | 140 | 145 | 679 | 945 | 0.08 | 25.1 | half-life ([3]; 1 mg/kg intravenous injection): 1.3 h; MRT last ([3]; 1 mg/kg intravenous injection): 0.91 h; Vd ([3]; 1 mg/kg intravenous injection): 1.5 L/kg; AUC(0-t) ([3]; 10 mg/kg oral gavage, fasted): 7880 ng·h/mL; Cmax ([3]; 10 mg/kg oral gavage, fasted): 4230 ng/mL; Tmax ([3]; 10 mg/kg oral gavage, fasted): 0.33 h; half-life ([3]; 10 mg/kg oral gavage, fasted): 1.75 h; MRT last ([3]; 10 mg/kg oral gavage, fasted): 1.89 h; AUC(0-t) ([4]; 2 mg/kg intravenous injection): 8570 ng·h/mL; Cmax ([4]; 2 mg/kg intravenous injection): 1770 ng/mL; Tmax ([4]; 2 mg/kg intravenous injection): 0.14 h; clearance ([4]; 2 mg/kg intravenous injection): 3.72 mL/min/kg; half-life ([4]; 2 mg/kg intravenous injection): 5.81 h; MRT last ([4]; 2 mg/kg intravenous injection): 5.53 h; Vd ([4]; 2 mg/kg intravenous injection): 1.55 L/kg; AUC(0-t) ([4]; 5 mg/kg oral gavage, fasted): 19500 ng·h/mL; Cmax ([4]; 5 mg/kg oral gavage, fasted): 2480 ng/mL; Tmax ([4]; 5 mg/kg oral gavage, fasted): 1.33 h; half-life ([4]; 5 mg/kg oral gavage, fasted): 4.47 h; MRT last ([4]; 5 mg/kg oral gavage, fasted): 5.28 h |
| O=C([C@H](CO)c1ccc(F)cc1F)N1CC(=C2CN(S(=O)(=O)c3ccccn3)C2)C1 [Compound 83, (S)-2-(2,4-difluorophenyl)-3-hydroxy-1-(1'-(pyridin-2-ylsulfonyl)-1',4'-dihydro-2H,2'H-[3,3'-diazetidinylidene]-1(4H)-yl)propan-1-one] | 537 | 731 | 0.08 | 29.9 | 4.91 | 2.12 | 5.11 | 3300 | 1740 | 0.25 | 3.43 | 3.2 | 21.8 | 20.9 | 24.8 | 11.7 | 260 | 570 | 0.08 | 62.9 | half-life ([3]; 1 mg/kg intravenous injection): 2.44 h; MRT last ([3]; 1 mg/kg intravenous injection): 1.33 h; Vd ([3]; 1 mg/kg intravenous injection): 6.3 L/kg; AUC(0-t) ([3]; 10 mg/kg oral gavage, fasted): 2010 ng·h/mL; Cmax ([3]; 10 mg/kg oral gavage, fasted): 1440 ng/mL; Tmax ([3]; 10 mg/kg oral gavage, fasted): 0.25 h; half-life ([3]; 10 mg/kg oral gavage, fasted): 2.03 h; MRT last ([3]; 10 mg/kg oral gavage, fasted): 1.71 h; AUC(0-t) ([4]; 2 mg/kg intravenous injection): 3110 ng·h/mL; Cmax ([4]; 2 mg/kg intravenous injection): 1590 ng/mL; Tmax ([4]; 2 mg/kg intravenous injection): 0.08 h; clearance ([4]; 2 mg/kg intravenous injection): 11.2 mL/min/kg; half-life ([4]; 2 mg/kg intravenous injection): 3.72 h; MRT last ([4]; 2 mg/kg intravenous injection): 2.79 h; Vd ([4]; 2 mg/kg intravenous injection): 1.93 L/kg; AUC(0-t) ([4]; 5 mg/kg oral gavage, fasted): 12200 ng·h/mL; Cmax ([4]; 5 mg/kg oral gavage, fasted): 3300 ng/mL; Tmax ([4]; 5 mg/kg oral gavage, fasted): 0.67 h; half-life ([4]; 5 mg/kg oral gavage, fasted): 5.21 h; MRT last ([4]; 5 mg/kg oral gavage, fasted): 4.51 h |
